From PubChem BioAssay AID1963850 (Molecular Pharmacology Branch, DTP, NCI, 2024)

Test system: 192522-019-R-J2-PDC complex tumor spheroid viability
Assay: Anticancer human tumor 192522-019-R-J2-PDC patient-derived colon adenocarcinoma cell line growth inhibition [POLQ]
Settings: for IC50: curve of first compound; for viability, T/C: stronger effect = lower value
Method: Multicellular complex tumor spheroid response to Polymerase (POL) inhibitors (novobiocin, ART-558, RP6685) in combination with a variety of drugs and investigational agents in selected tumor cell lines
The POL inhibitors (novobiocin, ART-558, and RP6685) were evaluated both individually and in combination with standard of care and investigational anticancer small molecules within a complex spheroid model of solid tumors. . Complex spheroids include a stromal component modeled by human endothelial cells (HUVEC) and fibroblasts modeled by human mesenchymal stem cells (MSCs). The concentration ranges selected for each drug and investigational agent were based upon clinically achievable concentrations if the clinical Cmax of the agent was known.
Compounds. The drugs and investigational agents: novobiocin (NSC847541), ART-558 (NSC835418), RP-6685 (NSC848927), peposertib (NSC802822), ceralasertib (NSC780249), elimusertib (NSC800525), camonsertib (NSC841442), AZD-1390 (NSC803789), olaparib (NSC753686), talazoparib (NSC767125), rucaparib (NSC756644), sotorasib (NSC818433), MRTX-1133 (NSC836407), SN-38 (NSC673596), topotecan (NSC609699), epotoside (NSC141540), doxorubicin (NSC123127), gemcitabine (NSC613327), 5-fluorouracil (NSC19893), paclitaxel (NSC125973), vemurafenib (NSC761431), MSA-2 (NSC828583), SN-011 (NSC837082), adavosertib (NSC754352), prexasertib (NSC758257), carboplatin (NSC241240) and oxaliplatin (NSC266046), were obtained from the National Cancer Institute (NCI) Developmental Therapeutics Program Chemical Repository (21). The FDA-approved anticancer drug set is available from the Developmental Therapeutics Program at https://dtp.cancer.gov/organization/dscb/obtaining/. […] The stock solutions were prepared in dimethyl sulfoxide (DMSO, Sigma-Aldrich, St. Louis, MO, cat. D2650), except for the platinum compounds which were prepared in saline (Quality Biological, Gaithersburg, MD, cat. 114-055-101), at 800-fold the tested concentration and stored at -70 degrees C prior to their use. All drugs and investigational agents were tested over a range starting from a high concentration at or near the clinical Cmax and decreasing in half-log increments. If the clinical Cmax for an agent had not been determined, the highest concentration tested was 10 microM, except for SN-38, which was tested at a high concentration of 1 microM.
Cell Culture. All cells were maintained in an incubator at 37 degrees C and 5% CO2 with 95% humidity. The PDC lines were cultured according to standard operating procedures established by the NCI PDMR (https://pdmr.cancer.gov). Table 3 of the manuscript, lists the cell lines along with the number of the three cell types plated to form the mct-spheroids and media for tumor cell growth. After thawing, all PDC lines, except 997537-175-T-J1-PDC and 415267-285-R-J2-PDC, were cultured in Matrigel-coated flasks prepared with a working solution of 1X Ham's F-12 nutrient mix, without supplementation (Thermo Fisher Scientific, cat. 11765054), 100 U/mL penicillin-streptomycin (Thermo Fisher Scientific, cat. 15140122), and 2.5% Matrigel (Corning Inc., Corning, NY, cat. 354248) for the first three passages. The two PDC lines 997537-175-T-J1-PDC and 415267-285-R-J2-PDC were cultured on uncoated flasks. The 857933-349-R-J2-PDC line was cultured in 6C/Colon 1B media containing advanced DMEM/F-12 (Thermo Fisher Scientific, cat. 12634028), 10 mM HEPES (Thermo Fisher Scientific, cat. 15630080), 1X GlutaMAX supplement (Thermo Fisher Scientific, cat. 35050061), 0.1 mg/mL primocin (InvivoGen, San Diego, CA, cat. ant-pm-2), 10% defined fetal bovine serum, heat inactivated (HyClone Laboratories Inc., Logan, UT, cat. SH30070.03HI), 50% L-WRN conditioned media (ATCC, cat. CRL-3276), 1.25 mM N-Acetyl-L-cysteine (Sigma-Aldrich, cat. A9165), 10 mM nicotinamide (Sigma-Aldrich, cat. N0636), 1X B-27 supplement (Thermo Fisher Scientific, cat. 17504044), 1X N-2 supplement (Thermo Fisher Scientific, cat. […]

[1] = second compound 0.0316 µM, first compound 0.0316 µM
[2] = second compound 0.0316 µM, first compound 0.1 µM
[3] = second compound 0.0316 µM, first compound 0.316 µM
[4] = second compound 0.0316 µM, first compound 1 µM
[5] = second compound 0.1 µM, first compound 0.0316 µM
[6] = second compound 0.1 µM, first compound 0.1 µM
[7] = second compound 0.1 µM, first compound 0.316 µM
[8] = second compound 0.1 µM, first compound 1 µM
[9] = second compound 0.316 µM, first compound 0.0316 µM
[10] = second compound 0.316 µM, first compound 0.1 µM
[11] = second compound 0.316 µM, first compound 0.316 µM
[12] = second compound 0.316 µM, first compound 1 µM
[13] = second compound 1 µM, first compound 0.0316 µM
[14] = second compound 1 µM, first compound 0.1 µM
[15] = second compound 1 µM, first compound 0.316 µM
[16] = second compound 1 µM, first compound 1 µM
[17] = second compound 3.16 µM, first compound 0.0316 µM
[18] = second compound 3.16 µM, first compound 0.1 µM
[19] = second compound 3.16 µM, first compound 0.316 µM
[20] = second compound 3.16 µM, first compound 1 µM
[21] = second compound 10 µM, first compound 0.0316 µM
[22] = second compound 10 µM, first compound 0.1 µM
[23] = second compound 10 µM, first compound 0.316 µM
[24] = second compound 10 µM, first compound 1 µM
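Note: spheroids exposed to drugs for seven days before reading.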
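Throughout, for viability, T/C: 100% = DMSO vehicle control viability in luminescence.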

C=CC(=O)N1CCN(c2nc(=O)n(-c3c(C)ccnc3C(C)C)c3nc(-c4c(O)cccc4F)c(F)cc23)C(C)C1 (centres undefined) + Nc1ccc(C#CCN(C(=O)Cc2ncc(C(F)(F)F)cc2C(F)(F)F)c2ccc(F)cc2)nn1
IC50 (second compound 0.0316 µM): > 10 µM | IC50 (second compound 0.1 µM): > 10 µM | IC50 (second compound 0.316 µM): > 10 µM | IC50 (second compound 1 µM): > 10 µM | IC50 (second compound 3.16 µM): > 10 µM | IC50 (second compound 10 µM): > 10 µM | viability, T/C [1]: 104% | viability, T/C [2]: 99.7% | viability, T/C [3]: 96.7% | viability, T/C [4]: 111% | viability, T/C (second compound 0.0316 µM, first compound 3.16 µM): 116% | viability, T/C (second compound 0.0316 µM, first compound 10 µM): 97% | viability, T/C [5]: 105% | viability, T/C [6]: 97.2% | viability, T/C [7]: 110% | viability, T/C [8]: 112% | viability, T/C (second compound 0.1 µM, first compound 3.16 µM): 102% | viability, T/C (second compound 0.1 µM, first compound 10 µM): 98.3% | viability, T/C [9]: 108% | viability, T/C [10]: 104% | viability, T/C [11]: 103% | viability, T/C [12]: 105% | viability, T/C (second compound 0.316 µM, first compound 3.16 µM): 116% | viability, T/C (second compound 0.316 µM, first compound 10 µM): 100% | viability, T/C [13]: 109% | viability, T/C [14]: 102% | viability, T/C [15]: 103% | viability, T/C [16]: 108% | viability, T/C (second compound 1 µM, first compound 3.16 µM): 119% | viability, T/C (second compound 1 µM, first compound 10 µM): 99.3% | viability, T/C [17]: 102% | viability, T/C [18]: 98.8% | viability, T/C [19]: 103% | viability, T/C [20]: 108% | viability, T/C (second compound 3.16 µM, first compound 3.16 µM): 115% | viability, T/C (second compound 3.16 µM, first compound 10 µM): 106% | viability, T/C [21]: 104% | viability, T/C [22]: 111% | viability, T/C [23]: 102% | viability, T/C [24]: 108% | viability, T/C (second compound 10 µM, first compound 3.16 µM): 107% | viability, T/C (second compound 10 µM, first compound 10 µM): 104%

C=CCn1c(=O)c2cnc(Nc3ccc(N4CCN(C)CC4)cc3)nc2n1-c1cccc(C(C)(C)O)n1 + Nc1ccc(C#CCN(C(=O)Cc2ncc(C(F)(F)F)cc2C(F)(F)F)c2ccc(F)cc2)nn1
IC50 (second compound 0.0316 µM): 0.732 µM | IC50 (second compound 0.1 µM): 0.757 µM | IC50 (second compound 0.316 µM): 0.799 µM | IC50 (second compound 1 µM): 0.778 µM | IC50 (second compound 3.16 µM): 0.901 µM | IC50 (second compound 10 µM): 0.833 µM | viability, T/C (second compound 0.0316 µM, first compound 0.00316 µM): 104% | viability, T/C (second compound 0.0316 µM, first compound 0.01 µM): 103% | viability, T/C [1]: 93% | viability, T/C [2]: 91.8% | viability, T/C [3]: 92.4% | viability, T/C [4]: 34.1% | viability, T/C (second compound 0.1 µM, first compound 0.00316 µM): 107% | viability, T/C (second compound 0.1 µM, first compound 0.01 µM): 103% | viability, T/C [5]: 97.5% | viability, T/C [6]: 96.6% | viability, T/C [7]: 93.2% | viability, T/C [8]: 35.9% | viability, T/C (second compound 0.316 µM, first compound 0.00316 µM): 105% | viability, T/C (second compound 0.316 µM, first compound 0.01 µM): 97.4% | viability, T/C [9]: 92.3% | viability, T/C [10]: 99.8% | viability, T/C [11]: 93% | viability, T/C [12]: 39.5% | viability, T/C (second compound 1 µM, first compound 0.00316 µM): 103% | viability, T/C (second compound 1 µM, first compound 0.01 µM): 108% | viability, T/C [13]: 102% | viability, T/C [14]: 95.2% | viability, T/C [15]: 89.7% | viability, T/C [16]: 39% | viability, T/C (second compound 3.16 µM, first compound 0.00316 µM): 108% | viability, T/C (second compound 3.16 µM, first compound 0.01 µM): 101% | viability, T/C [17]: 104% | viability, T/C [18]: 94.8% | viability, T/C [19]: 97.8% | viability, T/C [20]: 45.3% | viability, T/C (second compound 10 µM, first compound 0.00316 µM): 112% | viability, T/C (second compound 10 µM, first compound 0.01 µM): 113% | viability, T/C [21]: 110% | viability, T/C [22]: 106% | viability, T/C [23]: 98.5% | viability, T/C [24]: 40.2%
